Results: article PMC8391104, “Molecular mechanism of Mad1 kinetochore targeting by phosphorylated Bub1” (EMBO Reports, 2021)
Residue numbers refer to the chain shown, from its start. Where a SMILES comes first, the peptide text is derived from it. [ ]: non-standard residue; d: D form. pT = C[C@@H](OP(=O)(O)O)[C@H](N)C(=O)O; pS = N[C@@H](COP(=O)(O)O)C(=O)O

How the values were obtained:
Peptide solubility = format: physicochemical; conditions: Hepes buffer, aqueous buffer; 20 mM Hepes, pH 7.5, 100 mM NaCl, 1 mM TCEP, without DMSO; read-out: solubility
Protocol: Our ITC and sedimentation equilibrium experiments to measure the stoichiometry of the Mad1^CTD‐Bub1^CD1 interaction were performed with concentrations of Mad1 at 100 µM or lower, and titrating Bub1 until a twofold‐fourfold molar excess was obtained. However, our ^31P NMR experiments were conducted with around 0.25 to 0.5 mM of each, and still only one binding event was detected. […] DMSO interfered with ITC enthalpy changes and the NMR signal from DMSO obscured the protein peaks. In contrast, our Mad1^CTD‐Bub1^CD1 crystal structure was obtained through co‐crystallization of Mad1^CTD at a final concentration of 0.35 mM and Bub1^CD1 at 2.5 mM in 5% DMSO. The use of millimolar concentrations of peptide, and the presence of DMSO and isopropanol, required for Mad1^CTD‐Bub1^CD1 crystallization, may explain the association of a second peptide in the crystallized complex. […]
which are affected are already mapped out in Fig 5B, and this can be tracked across Bub1CD1 […]
We thank the reviewer for their positive and constructive comments.
1) On page 2, the first line of the third paragraph, Msp1 should be Mps1.
Response: Thank you, we have corrected this error.
2) Please provide a figure to show the omit map (2Fo−Fc map) for the BUB1 CD1 peptide.
Response: We have created a 2Fo-Fc omit map and included it in Fig EV2D and updated the figure legend accordingly. […]
2) p. 5, near bottom. The authors state that the singly phosphorylated Bub1 peptide (on Thr-461) is less soluble than the double phosphorylated peptide (also phosphorylated on Ser-459), which may explain previous reports that P-Ser-459 contributes to binding Mad1-CTD. It would be helpful if the authors could quantify this reduced solubility.
Response: We realise that our comment on the reduced solubility of the singly phosphorylated pT461 peptide is likely confusing, so we have removed this comment.
In terms of quantifying the reduced solubility, we observed an approximately 2-fold reduction of the solubility of the singly phosphorylated peptide. […]

Mad1^CTD R630A = target: T1, Mad1^CTD R630A (Homo sapiens, UniProt Q9Y6D9, R630A); assay: ITC, Mad1^CTD R630A; format: binding; conditions: 20°C, pH 7.5, R630A, average of at least three experiments ± SD
T1 construct: human Mad1^CTD homodimer (residues 597–718); double Strep His6-tag with TEV site (N, cleaved yes); made in house; host or cells: E. coli Rosetta 2 (DE3)
T1 sequence (Q9Y6D9 597-718 R630A limits assumed): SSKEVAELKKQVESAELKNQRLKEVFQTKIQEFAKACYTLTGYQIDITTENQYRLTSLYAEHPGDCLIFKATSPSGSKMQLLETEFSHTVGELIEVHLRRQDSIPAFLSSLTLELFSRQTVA
From the text: (§1) The coding region of Mad1^597–719 was cloned by USER® (NEB) into a modified pRSFDuet‐1 vector (71341‐3, Sigma‐Aldrich) with an N‐terminal double Strep His6‐tag, followed by a tobacco etch virus (TEV) protease cleavage site (Demple & Linn, [1982]; Bitinaite et al, [1992]). Mad1 mutants were generated using the QuikChange™ Lightning Site‐Directed Mutagenesis Kit (Agilent), developed by Stratagene Inc. (La Jolla, CA) (Nøhr & Kristiansen, [2003]). Mad1 constructs were transformed into Rosetta™ 2 (DE3) Singles™ Competent Cells (71400, Novagen) for expression. Expression was induced with 0.5 mM IPTG and grown overnight at 18°C. Cells were lysed in 25 mM HEPES pH 8.1, 250 mM NaCl, 2 mM DTT, 5% glycerol, 2 mM EDTA supplemented with lysozyme, and Complete™ EDTA‐free protease inhibitors (Roche). Proteins were purified over a Strep‐Tactin Superflow Plus column (QIAGEN) and cleaved with TEV protease overnight at 4°C. The cleaved Mad1^CTD was then diluted to 50 mM NaCl, purified over an anion exchange (Resource Q, GE Healthcare) column, followed by size exclusion chromatography using a Superdex 75 Increase column (GE Healthcare). Mad1^CTD was concentrated to 35 mg/ml in a buffer of 20 mM HEPES pH 7.5, 100 mM NaCl and 1 mM TCEP.
(§2) Isothermal titration calorimetry (ITC) was performed using an Auto‐iTC200 instrument (Malvern Instruments, Malvern, UK) at 20°C. […]

Mad1^CTD K619A = target: T2, Mad1^CTD K619A (Homo sapiens, UniProt Q9Y6D9, K619A); assay: ITC, Mad1^CTD K619A; format: binding; conditions: 20°C, pH 7.5, K619A, average of at least three experiments ± SD
T2 construct: human Mad1^CTD homodimer (residues 597–718); double Strep His6-tag with TEV site (N, cleaved yes); made in house; host or cells: E. coli Rosetta 2 (DE3)
T2 sequence (Q9Y6D9 597-718 K619A limits assumed): T1 sequence (Q9Y6D9 597-718 R630A limits assumed) with K23A, A34R
From the text: as §1, §2

Mad1^CTD K614A = target: T3, Mad1^CTD K614A (Homo sapiens, UniProt Q9Y6D9, K614A); assay: ITC, Mad1^CTD K614A; format: binding; conditions: 20°C, pH 7.5, K614A, average of at least three experiments ± SD
T3 construct: human Mad1^CTD homodimer (residues 597–718); double Strep His6-tag with TEV site (N, cleaved yes); made in house; host or cells: E. coli Rosetta 2 (DE3)
T3 sequence (Q9Y6D9 597-718 K614A limits assumed): T1 sequence (Q9Y6D9 597-718 R630A limits assumed) with K18A, A34R
From the text: as §1, §2

Mad1^CTD Q627A = target: T4, Mad1^CTD Q627A (Homo sapiens, UniProt Q9Y6D9, Q627A); assay: ITC, Mad1^CTD Q627A; format: binding; conditions: 20°C, pH 7.5, Q627A, average of at least three experiments ± SD
T4 construct: human Mad1^CTD homodimer (residues 597–718); double Strep His6-tag with TEV site (N, cleaved yes); made in house; host or cells: E. coli Rosetta 2 (DE3)
T4 sequence (Q9Y6D9 597-718 Q627A limits assumed): T1 sequence (Q9Y6D9 597-718 R630A limits assumed) with Q31A, A34R
From the text: as §1, §2

[1] = target: T5, Mad1^CTD QRRI** (Q627A, R650A, I643A, R630A) (Homo sapiens, UniProt Q9Y6D9, I643A/Q627A/R630A/R650A); assay: ITC, Mad1^CTD QRRI** quadruple mutant; format: binding; conditions: 20°C, pH 7.5, QRRI**, average of at least three experiments ± SD
T5 construct: human Mad1^CTD homodimer (residues 597–718); double Strep His6-tag with TEV site (N, cleaved yes); made in house; host or cells: E. coli Rosetta 2 (DE3)
T5 sequence (Q9Y6D9 597-718 Q627A/R630A/I643A/R650A limits assumed): T1 sequence (Q9Y6D9 597-718 R630A limits assumed) with Q31A, I47A, R54A
From the text: as §1, §2

[2] = target: T6, human Mad1^CTD (WT) homodimer (Homo sapiens, UniProt Q9Y6D9); assay: ITC of Bub1^CD1 peptides binding to wild-type Mad1^CTD; conditions: for binding to Mad1^CTD by ITC, in words: pH 7.5, Mad1^CTD WT
T6 construct: human Mad1^CTD homodimer (residues 597–718); double Strep His6-tag with TEV site (N, cleaved yes); made in house; host or cells: E. coli Rosetta 2 (DE3)
T6 sequence (Q9Y6D9 597-718): T1 sequence (Q9Y6D9 597-718 R630A limits assumed) with A34R
From the text: as §1
Bub1^CD1 peptides were ordered from Designer Bioscience UK, at 95% purity. The full peptide sequence used in this study was (W)KVQP{pS}P{pT}VHTKEALGFIMNMFQAPTS. (W) = peptide with an additional N‐terminal tryptophan was used to confirm peptide concentration in stoichiometry studies.
Isothermal titration calorimetry (ITC) was performed using an Auto‐iTC200 instrument (Malvern Instruments, Malvern, UK) at 20°C. Mad1^CTD and Bub1^CD1 peptide mutants were dialysed into 20 mM HEPES pH 7.5, 100 mM NaCl, 1 mM TCEP. For each titration between 30–100 µM of Mad1 was pipetted into the calorimeter cell. The Bub1^CD1 peptides at 0.3–1.5 mM were titrated into the cell consisting of one 0.5 µl injection followed by 19 injections of 2 µl each. The changes in the heat released were integrated over the entire titration and fitted to a single‐site binding model using the MicroCal PEAQ‐ITC Analysis Software 1.0.0.1258 (Malvern Instruments). Titrations were performed in triplicate. Calculations for stoichiometry were based on the molar concentrations of dimeric Mad1^CTD.

[3] = parameters: method as in Zhang et al, 2017; conditions: ref Zhang et al, 2017; cited from earlier work
[4] = 1H 1D NMR of free Bub1^CD1 peptides (conformation); format: physicochemical; conditions: narrow dispersion of amide peaks, not bound to Mad1
Protocol: ^1H‐detected experiments were performed on 600 and 800 MHz Avance III spectrometers, both equipped with triple resonance TCI CryoProbes (Bruker). ^31P 1D NMR spectra were recorded on a 500 MHz Avance II spectrometer equipped with a broadband BBO cryoprobe (Bruker). All spectra were collected in 50 mM HEPES, pH 7.0, 100 mM NaCl, 2 mM TCEP, 0.02% NaN3 at 298K. Standard ^2H decoupled TROSY‐based triple resonance experiments were used for backbone resonance assignments: HNCO, HN(CA)CO, HNCA, HN(CO)CA, HNCACB, HN(CO)CACB and HN(COCA)NNH (Pervushin, [2020]). Backbone datasets were collected with 20–25% non‐uniform sampling and reconstructed using compressed sensing in MddNMR (Mayzel et al, [2014]). Topspin 3.6 (Bruker) was used for processing and NMRFAM‐Sparky 1.47 for data analysis (Lee et al, [2015]). Backbone assignments were obtained in Mars (Jung & Zweckstetter, [2004]). Secondary chemical shifts were calculated from the differences between observed Cα/Cβ chemical shifts and Cα/Cβ chemical shifts for random coils (Kjaergaard & Poulsen, [2011]). […]

15N-labelled Mad1^CTD = assay: NMR titration (1H,15N HSQC) of Bub1^CD1 peptides into 15N-labelled Mad1^CTD; format: binding, human; conditions: 298K, 50 mM HEPES pH 7.0, 100 mM NaCl, 2 mM TCEP, 0.02% NaN3
Protocol: Isotopically labelled Mad1^CTD was expressed in M9 minimal media (6 g/l Na2HPO4, 3 g/l KH2PO4, 0.5 g/l NaCl) supplemented with 1.7 g/l yeast nitrogen base without NH4Cl and amino acids (Sigma Y1251). 1 g/l ^15NH4Cl and 4 g/l unlabelled glucose were supplemented for ^15N labelling. For the deuteration of nonlabile sidechain protons, cells were adapted for growth in 10, 44 and 78% deuterated media on agar plates before they were grown in large cultures supplemented with 1 g/l ^15NH4Cl and 4 g/l ^2H^13C‐glucose in 99% D2O (Sigma). Prior to NMR experiments, isotopically labelled Mad1^CTD and Bub1^CD1 peptide were dialysed into 25 mM HEPES, pH 7.0, 100 mM NaCl, 1 mM TCEP.
^1H‐detected experiments were performed on 600 and 800 MHz Avance III spectrometers, both equipped with triple resonance TCI CryoProbes (Bruker). ^31P 1D NMR spectra were recorded on a 500 MHz Avance II spectrometer equipped with a broadband BBO cryoprobe (Bruker). All spectra were collected in 50 mM HEPES, pH 7.0, 100 mM NaCl, 2 mM TCEP, 0.02% NaN3 at 298K. […] Secondary chemical shifts were calculated from the differences between observed Cα/Cβ chemical shifts and Cα/Cβ chemical shifts for random coils (Kjaergaard & Poulsen, [2011]). […]

Compound	solubility (Peptide solubility) [µM]	Kd (Mad1^CTD R630A) [µM]	Kd (Mad1^CTD K619A) [µM]	Kd (Mad1^CTD K614A) [µM]	Kd (Mad1^CTD Q627A) [µM]	Kd [1] [µM]	Kd ([2]; 20°C, 20 mM HEPES pH 7.5, 100 mM NaCl, 1 mM TCEP, 30–100 µM Mad1 in cell, 0.3–1.5 mM peptide, single-site model, average of at least three experiments ± SD) [µM]	KD at lowered peptide concentration ([2]; lowered concentration of doubly phosphorylated peptide (usual: 100 µM Mad1CTD, 1 mM peptide))	conformation of unbound peptide by circular dichroism, in words [3]	conformation of free peptide, in words [4]	binding by NMR titration, in words (15N-labelled Mad1^CTD)	binding to Mad1^CTD by ITC, in words ([2]; 20°C)	binding to Mad1^CTD by ITC, in words ([2]; 20°C, listed as unphosphorylated Bub1^CD1 peptide)
CC[C@H](C)[C@H](NC(=O)[C@H](Cc1ccccc1)NC(=O)CNC(=O)[C@H](CC(C)C)NC(=O)[C@H](C)NC(=O)[C@H](CCC(=O)O)NC(=O)[C@H](CCCCN)NC(=O)[C@@H](NC(=O)[C@H](Cc1c[nH]cn1)NC(=O)[C@@H](NC(=O)[C@@H](NC(=O)[C@@H]1CCCN1C(=O)[C@H](COP(=O)(O)O)NC(=O)[C@@H]1CCCN1C(=O)[C@H](CCC(N)=O)NC(=O)[C@@H](NC(=O)[C@@H](N)CCCCN)C(C)C)[C@@H](C)OP(=O)(O)O)C(C)C)[C@@H](C)O)C(=O)N[C@@H](CCSC)C(=O)N[C@@H](CC(N)=O)C(=O)N[C@@H](CCSC)C(=O)N[C@@H](Cc1ccccc1)C(=O)N[C@@H](CCC(N)=O)C(=O)N[C@@H](C)C(=O)N1CCC[C@H]1C(=O)N[C@H](C(=O)N[C@@H](CO)C(=O)O)[C@@H](C)O [pSpT CD1] (H-KVQP[pS]P[pT]VHTKEALGFIMNMFQAPTS-OH)	≥ 1500	10.1 ± 1.3	10.1 ± 5.4	2.4 ± 0.43	2.4 ± 0.4	24.9 ± 1.3	2.7 ± 1.2	same KD					
CD1: non‐phosphorylated Bub1^CD1 peptide (KVQPSPTVHTKEALGFIMNMFQAPTS; phosphoserine at 459, phosphothreonine at 461)									unstructured but might have helical propensity that is increased with Thr461 phosphorylation	unstructured when not bound to Mad1	failed to reveal Bub1‐Mad1 interactions	no binding	complete absence of interactions
